Assay results from ChEMBL document CHEMBL1201862, “PubChem BioAssay data set” (2004).
The source made the active and inactive calls.

Assays:
[1] = M. tuberculosis H37Rv growth inhibitors, H37Rv strain (AID 1626); assay type: functional
[2] = target: T1, Polyadenylate-binding protein 1 (Homo sapiens, UniProt P11940); experiment: PABP1 MLLE–PAM2 interaction inhibitors, dose response, miRNA deadenylation inhibitor project, biochemical, fluorescence polarization, Cy5-PAM2 peptide, secondary (AID 602260); assay type: functional; conditions: read-out: IC50_Mean
T1 sequence (P11940 whole entry): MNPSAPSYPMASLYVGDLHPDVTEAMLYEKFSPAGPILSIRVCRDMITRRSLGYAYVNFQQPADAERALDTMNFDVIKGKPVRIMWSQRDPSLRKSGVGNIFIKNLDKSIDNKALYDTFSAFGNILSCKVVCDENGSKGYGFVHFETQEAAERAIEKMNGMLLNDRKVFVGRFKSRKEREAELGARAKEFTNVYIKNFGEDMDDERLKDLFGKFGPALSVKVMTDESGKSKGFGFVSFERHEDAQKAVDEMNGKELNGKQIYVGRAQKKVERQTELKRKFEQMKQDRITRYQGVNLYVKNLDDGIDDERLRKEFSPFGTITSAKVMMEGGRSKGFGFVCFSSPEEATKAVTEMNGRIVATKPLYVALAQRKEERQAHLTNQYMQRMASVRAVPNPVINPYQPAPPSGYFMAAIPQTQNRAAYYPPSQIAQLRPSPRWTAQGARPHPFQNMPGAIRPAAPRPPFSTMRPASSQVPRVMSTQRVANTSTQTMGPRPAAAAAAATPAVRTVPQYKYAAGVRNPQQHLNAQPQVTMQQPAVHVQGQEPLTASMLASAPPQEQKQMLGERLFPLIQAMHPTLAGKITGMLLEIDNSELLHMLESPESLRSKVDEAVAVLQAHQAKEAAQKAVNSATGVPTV

[3] = target: T1, Polyadenylate-binding protein 1; experiment: PABP1 MLLE–PAM2 binding inhibitor potency, dose response, biochemical, fluorescence polarization, FITC-PAM2 peptide (AID 602259); assay type: functional; conditions: read-out: IC50_Mean
[4] = target: T2, Mannose-6-phosphate isomerase (Homo sapiens, UniProt P34949); experiment: human PMI inhibitors, high substrate, primary screen, biochemical, fluorescence intensity, high mannose 6-phosphate (AID 1220)
T2 sequence (P34949 whole entry): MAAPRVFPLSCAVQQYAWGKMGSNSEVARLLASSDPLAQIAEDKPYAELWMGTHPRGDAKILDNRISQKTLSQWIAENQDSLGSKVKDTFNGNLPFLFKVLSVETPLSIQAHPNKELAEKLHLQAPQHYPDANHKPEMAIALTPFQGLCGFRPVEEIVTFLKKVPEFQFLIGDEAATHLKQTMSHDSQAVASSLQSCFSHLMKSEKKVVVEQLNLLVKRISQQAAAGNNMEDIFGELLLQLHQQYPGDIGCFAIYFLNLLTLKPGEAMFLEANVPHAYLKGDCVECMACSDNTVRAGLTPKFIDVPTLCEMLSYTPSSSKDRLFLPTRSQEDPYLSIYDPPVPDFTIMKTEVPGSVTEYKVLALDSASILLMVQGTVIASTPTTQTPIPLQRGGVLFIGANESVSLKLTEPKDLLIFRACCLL

[5] = Luminescence Cell-Based Dose Response HTS to Identify Inhibitors of 5'UTR Stem-Loop Driven Prion Protein mRNA Translation in H4 Neuroglioblastoma Cells. [Related pubchem assays: 1827 (Project Summary), 1813 (Primary HTS)]; assay type: functional
BJ [6] = experiment: cells; assay type: functional, cell-based; conditions: Homo sapiens
[7] = MC4R antagonists, dose response, counter-screen for LGR2 antagonist project, cell-based, plate reader, cherry pick (AID 743444); assay type: functional;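 further: transfected HEK 293 cells stimulated with alpha-MSH peptide; potency of inhibitors of the alpha-MSH evoked signal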
[8] = HepG2 cell cytotoxicity, dose response, cytotoxicity control, plate reader, cherry-pick, antagonist series (AID 743416); assay type: functional, cell-based
[9] = inhibitors of SNCA 5'UTR-driven reporter translation, confirmation, H4 neuroglioma cells, luminescence (AID 1988); assay type: functional, cell-based
[10] = A549 cell cytotoxicity, dose response, cytotoxicity control, plate reader, cherry-pick, antagonist series (AID 743412); assay type: functional, cell-based
[11] = inhibitors of firefly luciferase expression or activity, dose response, H4 neuroglioma cells, luminescence (AID 1990); assay type: functional, cell-based
[12] = LGR2 antagonists, dose response, cell-based, HEK293, CRE-luciferase reporter, cherry pick, set 2 (AID 743343); assay type: functional;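 further: transfected cells were stimulated with diluted bursicon conditioned medium after compound addition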
[13] = HEK293 cell cytotoxicity, dose response, cytotoxicity control, plate reader, cherry-picked samples (AID 743446); assay type: functional, cell-based
[14] = cytotoxicity toward DRD oncogenic fibroblasts, dose response, cell-based, non-viral oncogenic, luminescence (AID 1934); assay type: functional; conditions: Homo sapiens
BJ [15] = experiment: cytotoxicity toward BJ-TERT fibroblasts, dose response, cell-based, RAS-independent, luminescence (AID 1933); assay type: functional; conditions: Homo sapiens
BJ [16] = experiment: cytotoxicity toward BJ-TERT-LT-ST fibroblasts, dose response, cell-based, RAS-independent, luminescence (AID 1935); assay type: functional; conditions: Homo sapiens;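 further: BJ fibroblasts immortalized with TERT plus LT and ST oncogenes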
[17] = target: T3, Adenosylmethionine-8-amino-7-oxononanoate aminotransferase (Mycobacterium tuberculosis, UniProt P9WQ81); experiment: Mycobacterium tuberculosis BioA enzyme inhibitor Measured in Biochemical System Using Plate Reader - 2163-02_Inhibitor_Dose_CherryPick_Activity.; assay type: functional, Mycobacterium tuberculosis UT205
T3 sequence (P9WQ81 whole entry): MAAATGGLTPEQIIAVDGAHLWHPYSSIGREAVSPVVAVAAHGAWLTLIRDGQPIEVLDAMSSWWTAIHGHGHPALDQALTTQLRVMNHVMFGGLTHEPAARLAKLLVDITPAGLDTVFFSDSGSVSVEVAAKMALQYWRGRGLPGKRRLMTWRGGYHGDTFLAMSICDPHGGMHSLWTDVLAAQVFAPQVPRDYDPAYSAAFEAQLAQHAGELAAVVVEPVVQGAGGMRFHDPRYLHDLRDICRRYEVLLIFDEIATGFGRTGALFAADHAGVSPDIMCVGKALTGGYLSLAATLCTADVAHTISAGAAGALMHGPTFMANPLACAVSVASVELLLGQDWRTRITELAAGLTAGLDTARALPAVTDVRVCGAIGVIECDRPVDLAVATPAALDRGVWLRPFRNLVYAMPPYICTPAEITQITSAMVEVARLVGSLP

[18] = target: T4, Oxysterols receptor LXR-beta (Homo sapiens, UniProt P55055); experiment: LXR agonists, Gal4 luciferase reporter, dose response, counter-screen for ssDAF-12 agonist project, cell-based, luminescence, HEK293, S. stercoralis campaign (AID 720737); assay type: functional; conditions: read-out: IC50 (the source's name)
T4 sequence (P55055 whole entry): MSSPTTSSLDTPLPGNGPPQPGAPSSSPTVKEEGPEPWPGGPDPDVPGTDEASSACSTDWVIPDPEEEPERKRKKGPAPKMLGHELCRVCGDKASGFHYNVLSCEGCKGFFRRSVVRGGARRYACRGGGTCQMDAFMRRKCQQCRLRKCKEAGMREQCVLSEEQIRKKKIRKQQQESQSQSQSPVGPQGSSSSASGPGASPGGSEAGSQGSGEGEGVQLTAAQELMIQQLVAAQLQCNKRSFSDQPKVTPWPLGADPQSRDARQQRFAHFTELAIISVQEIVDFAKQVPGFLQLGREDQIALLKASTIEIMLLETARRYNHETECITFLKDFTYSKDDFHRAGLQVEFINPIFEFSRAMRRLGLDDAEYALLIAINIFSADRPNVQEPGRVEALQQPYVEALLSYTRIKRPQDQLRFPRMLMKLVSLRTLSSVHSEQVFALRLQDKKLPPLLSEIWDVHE

[19] = Luminescence-based cell-based high throughput dose response assay to identify activators of the DAF-12 from the parasite S. stercoralis (ssDAF-12).; assay type: functional
[20] = target: Disintegrin and metalloproteinase domain-containing protein 17 (Homo sapiens, UniProt P78536); experiment: ADAM17 protease inhibitors, dose response, counter-screen for ADAM10 exosite inhibitor project, biochemical, quenched FRET substrate (AID 743253)
Chain of Disintegrin and metalloproteinase domain-containing protein 17 (P78536 whole entry, the tested form may be a part): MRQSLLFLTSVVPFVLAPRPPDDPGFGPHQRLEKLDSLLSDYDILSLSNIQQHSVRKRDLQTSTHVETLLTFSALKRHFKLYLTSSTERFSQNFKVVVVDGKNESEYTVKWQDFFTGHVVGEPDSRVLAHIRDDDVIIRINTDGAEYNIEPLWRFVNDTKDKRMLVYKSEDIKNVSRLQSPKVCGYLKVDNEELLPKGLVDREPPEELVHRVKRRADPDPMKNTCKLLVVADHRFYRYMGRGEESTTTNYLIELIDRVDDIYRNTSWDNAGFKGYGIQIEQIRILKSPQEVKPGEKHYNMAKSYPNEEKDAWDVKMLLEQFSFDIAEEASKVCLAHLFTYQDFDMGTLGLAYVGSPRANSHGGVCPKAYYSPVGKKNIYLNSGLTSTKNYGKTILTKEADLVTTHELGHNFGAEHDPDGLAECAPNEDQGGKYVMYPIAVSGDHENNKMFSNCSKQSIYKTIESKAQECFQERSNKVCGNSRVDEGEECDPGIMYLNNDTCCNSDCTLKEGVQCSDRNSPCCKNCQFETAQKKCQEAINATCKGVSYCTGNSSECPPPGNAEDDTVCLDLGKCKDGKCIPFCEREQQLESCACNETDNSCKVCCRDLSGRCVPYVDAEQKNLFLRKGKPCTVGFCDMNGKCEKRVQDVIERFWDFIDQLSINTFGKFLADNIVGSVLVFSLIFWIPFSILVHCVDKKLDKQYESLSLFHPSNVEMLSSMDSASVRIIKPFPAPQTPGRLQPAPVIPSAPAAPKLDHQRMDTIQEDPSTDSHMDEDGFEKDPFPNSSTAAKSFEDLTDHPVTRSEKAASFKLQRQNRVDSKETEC

H9c2 = experiment: cells; assay type: functional, cell-based; conditions: Rattus norvegicus, H9c2, Myocardium;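 further: confirmatory concentration-response retest of ultra-high-throughput screening hits for modulation of myocardial damage; cell death induced by hydrogen peroxide oxidative stress; compound pretreatment for 60 min then peroxide exposure for 2 h; potency is for protecting the cells against peroxide damage rather than for killing them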
Leucine aminopeptidase = target: T5, Leucine aminopeptidase (Plasmodium falciparum 3D7, UniProt Q8IL11); experiment: P. falciparum M17LAP inhibitors, primary screen, biochemical, fluorogenic H-Leu-NHMec substrate, 1536-well (AID 1619); assay type: functional
T5 sequence (Q8IL11 whole entry): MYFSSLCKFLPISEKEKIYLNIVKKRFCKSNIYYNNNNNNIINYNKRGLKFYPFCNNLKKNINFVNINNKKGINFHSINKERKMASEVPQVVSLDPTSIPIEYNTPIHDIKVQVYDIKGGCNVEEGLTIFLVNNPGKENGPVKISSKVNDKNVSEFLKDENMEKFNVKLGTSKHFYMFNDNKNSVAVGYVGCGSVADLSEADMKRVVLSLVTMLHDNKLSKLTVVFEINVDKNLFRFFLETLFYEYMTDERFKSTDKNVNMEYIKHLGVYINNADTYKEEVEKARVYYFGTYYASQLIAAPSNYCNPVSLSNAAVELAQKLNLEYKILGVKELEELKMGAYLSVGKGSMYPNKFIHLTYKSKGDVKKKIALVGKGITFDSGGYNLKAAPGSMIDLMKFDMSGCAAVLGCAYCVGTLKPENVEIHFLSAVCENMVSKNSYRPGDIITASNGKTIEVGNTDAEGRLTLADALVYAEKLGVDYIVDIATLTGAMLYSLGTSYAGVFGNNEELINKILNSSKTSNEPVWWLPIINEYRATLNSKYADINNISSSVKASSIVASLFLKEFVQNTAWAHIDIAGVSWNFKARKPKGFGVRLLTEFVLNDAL

Nc1nc2c(s1)COc1ccccc1-2
IC50 [1]: > 100 µM (active)

Nc1cccnc1Sc1cccc(Cl)c1
IC50 [2]: > 66 µM (inactive)
IC50 [3]: > 66 µM (inactive)
IC50 [4]: > 50 µM (not active)

CCOC(=O)c1cnc(Nc2nc3ccccc3o2)nc1C
EC50 [5]: 0.35 µM (active)
EC50 (BJ [6]): 17 µM (active)
AC50 [7]: 1.56 µM (active)
AC50 [8]: 5.13 µM (active)
EC50 [9]: 0.278 µM (active)
AC50 [10]: 16.9 µM (active)
EC50 [11]: 0.382 µM (active)
AC50 [12]: 1.11 µM (active)
AC50 [13]: 51.2 µM (active)
EC50 [14]: 11.7 µM (active)
EC50 (BJ [15]): 11.1 µM (inconclusive)
EC50 (BJ [16]): > 150 µM (inconclusive)

CCOC(=O)c1ccc2c(c1)nc(SCc1cn3ccsc3n1)n2CC
AC50 [17]: 1.16 µM (active)

O=C(CCNc1ccc(Cc2ccncc2)cc1)c1ccc([N+](=O)[O-])cc1
EC50 [18]: > 67.5 µM (inactive)
IC50 [4]: 15.8 µM (active)
IC50 [19]: > 67.5 µM (inactive)

O=C(Nc1nc2ccccc2s1)C1c2ccccc2Oc2ccccc21
IC50 [1]: > 100 µM (active)

O=C1OCCN1C(=O)[C@H]1[C@H](c2ccc([N+](=O)[O-])cc2)C(c2ccc(F)cc2)=NN1c1ccc(Br)cc1
IC50 [20]: > 69.5 µM (inactive)
IC50 (H9c2): > 79 µM (inactive)

CCOC(=O)c1c(N)sc(C(N)=O)c1C
AC50 [17]: 5.1 µM (active)

O=C(Nc1nccs1)c1ccc(NC(=O)C2CC=CCC2C(=O)O)cc1 (configuration not stated)
IC50 (Leucine aminopeptidase): 23.2 µM (active)

COc1ccc(NC(=O)CSc2nnc[nH]2)c([N+](=O)[O-])c1
IC50 (Leucine aminopeptidase): 17 µM (active)

COC(=O)c1c(NC(=O)C2C3C=CC(CC3)C2C(=O)O)sc(C)c1C (configuration not stated)
IC50 (Leucine aminopeptidase): 19 µM (active)
